Experiments:
Type in all cases: in vivo
[1] = system: redroot pigweed (Amaranthus retroflexus, AMARE); test: Pre-emerge test, greenhouse herbicide activity screening; details: pre-emerge, 14 days after application, rating scale 0-100
Procedure, shortened: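 Visual ratings on a 0-100 scale (0 no damage, 100 all plants dead) were taken at 14 days after treatment. Rates of 15-1000 g ai/ha in acetone, 187 l/ha, were sprayed onto soil one day after planting (pre-emerge) or onto 2-3 leaf plants with 0.25% v/v surfactant (post-emerge).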

[2] = system: barnyardgrass (Echinochloa crus-galli, ECHCG); test: as above; details: pre-emerge, 14 days after application, rating scale 0-100
Procedure, shortened: (§1)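 Applied at 15–1000 g ai/ha from acetone in 187 l/ha spray volume. Post-emergence applications included 0.25% v/v non-ionic surfactant and reached plants sown 8–21 days before. Pre-emergence applications were incorporated by surface watering. Efficacy or crop damage was rated on a 0–100 scale after 14 days.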

[3] = system: green foxtail (Setaria viridis, SETVI); test: as above; details: pre-emerge, 14 days after application, rating scale 0-100
Procedure, shortened: as §1

[4] = system: ivyleaf morningglory (Ipomoea hederacea, IPOHE); test: as above; details: pre-emerge, 14 days after application, rating scale 0-100
Procedure, shortened: as §1

[5] = system: johnsongrass (Sorghum halepense, SORHA); test: as above; details: pre-emerge, 14 days after application, rating scale 0-100
Procedure, shortened: as §1

[6] = system: lambsquarters (Chenopodium album, CHEAL); test: as above; details: pre-emerge, 14 days after application, rating scale 0-100
Procedure, shortened: as §1

[7] = system: large crabgrass (Digitaria sanguinalis, DIGSA); test: as above; details: pre-emerge, 14 days after application, rating scale 0-100
Procedure, shortened: as §1

[8] = system: sicklepod (Cassia obtusifolia, CASOB); test: as above; details: pre-emerge, 14 days after application, rating scale 0-100
Procedure, shortened: as §1

[9] = system: velvetleaf (Abutilon theophrasti, ABUTH); test: as above; details: pre-emerge, 14 days after application, rating scale 0-100
Procedure, shortened: as §1

[10] = system: field corn (Zea mays L., var. Dekalb 535, CORN); test: Pre-emerge test, crop safety; details: pre-emerge, 14 days after application, rating scale 0-100
Procedure, shortened: (§2)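 Fourteen days after spraying, crop and weed injury was graded visually from 0, no effect, to 100, every plant dead. Test substances were dissolved in acetone and applied at 15–1000 g ai/ha with a flat-fan nozzle. Application was either pre-emergence, one day after sowing, or post-emergence at the 2–3 leaf stage.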

[11] = system: upland rice (Oryza sp., var. Tebonnet, RICE); test: Pre-emerge test, crop safety; details: pre-emerge, 14 days after application, rating scale 0-100
Procedure, shortened: as §2

[12] = system: barnyardgrass (Echinochloa crus-galli, ECHCG); test: Post-emerge test, greenhouse herbicide activity screening; details: post-emerge, 14 days after application, rating scale 0-100
Procedure, shortened: as §2

[13] = system: green foxtail (Setaria viridis, SETVI); test: as above; details: post-emerge, 14 days after application, rating scale 0-100
Procedure, shortened: as §2

[14] = system: ivyleaf morningglory (Ipomoea hederacea, IPOHE); test: as above; details: post-emerge, 14 days after application, rating scale 0-100
Procedure, shortened: as §2

[15] = system: johnsongrass (Sorghum halepense, SORHA); test: as above; details: post-emerge, 14 days after application, rating scale 0-100
Procedure, shortened: as §2

[16] = system: lambsquarters (Chenopodium album, CHEAL); test: as above; details: post-emerge, 14 days after application, rating scale 0-100
Procedure, shortened: as §2

[17] = system: large crabgrass (Digitaria sanguinalis, DIGSA); test: as above; details: post-emerge, 14 days after application, rating scale 0-100
Procedure, shortened: as §2

[18] = system: redroot pigweed (Amaranthus retroflexus, AMARE); test: as above; details: post-emerge, 14 days after application
Procedure, shortened: as §2

[19] = system: sicklepod (Cassia obtusifolia, CASOB); test: as above; details: post-emerge, 14 days after application, rating scale 0-100
Procedure, shortened: as §2

[20] = system: velvetleaf (Abutilon theophrasti, ABUTH); test: as above; details: post-emerge, 14 days after application, rating scale 0-100
Procedure, shortened: as §2

[21] = system: field corn (Zea mays L., var. Dekalb 535, CORN); test: Post-emerge test, crop safety; details: post-emerge, 14 days after application, rating scale 0-100
Procedure, shortened: as §1

[22] = system: upland rice (Oryza sp., var. Tebonnet, RICE); test: Post-emerge test, crop safety; details: post-emerge, 14 days after application, rating scale 0-100
Procedure, shortened: as §1

[23] = 63 g ai/ha, rating scale 0-100 (0 no damage, 100 complete death)
[24] = 250 g ai/ha, rating scale 0-100

COc1c(Cl)cc(F)c(-n2c(=O)cc(C(F)(F)F)n(C)c2=O)c1NN=CCCSC [15-14]
phytotoxicity rating AMARE ([1]; 63 g ai/ha): 100 | phytotoxicity rating AMARE ([1]; 250 g ai/ha): 100 | phytotoxicity rating ECHCG ([2]; 63 g ai/ha): 100 | phytotoxicity rating ECHCG ([2]; 250 g ai/ha): 100 | phytotoxicity rating SETVI ([3]; 63 g ai/ha): 100 | phytotoxicity rating SETVI ([3]; 250 g ai/ha): 100 | phytotoxicity rating IPOHE ([4]; 63 g ai/ha): 100 | phytotoxicity rating IPOHE ([4]; 250 g ai/ha): 100 | phytotoxicity rating SORHA ([5]; 63 g ai/ha): 100 | phytotoxicity rating SORHA ([5]; 250 g ai/ha): 100 | phytotoxicity rating CHEAL ([6]; 63 g ai/ha): 100 | phytotoxicity rating CHEAL ([6]; 250 g ai/ha): 100 | phytotoxicity rating DIGSA ([7]; 63 g ai/ha): 100 | phytotoxicity rating DIGSA ([7]; 250 g ai/ha): 100 | phytotoxicity rating CASOB ([8]; 63 g ai/ha): 90 | phytotoxicity rating CASOB ([8]; 250 g ai/ha): 100 | phytotoxicity rating ABUTH ([9]; 63 g ai/ha): 100 | phytotoxicity rating ABUTH ([9]; 250 g ai/ha): 100 | phytotoxicity rating CORN ([10]; 63 g ai/ha): 40 | phytotoxicity rating CORN ([10]; 250 g ai/ha): 99 | phytotoxicity rating RICE ([11]; 63 g ai/ha): 99 | phytotoxicity rating RICE ([11]; 250 g ai/ha): 100 | Post-emerge Herbicidal Activity ECHCG (phytotoxicity rating) ([12]; 63 g ai/ha): 20 | Post-emerge Herbicidal Activity ECHCG (phytotoxicity rating) ([12]; 250 g ai/ha): 90 | Post-emerge Herbicidal Activity SETVI (phytotoxicity rating) ([13]; 63 g ai/ha): 20 | Post-emerge Herbicidal Activity SETVI (phytotoxicity rating) ([13]; 250 g ai/ha): 55 | Post-emerge Herbicidal Activity IPOHE (phytotoxicity rating) ([14]; 63 g ai/ha): 100 | Post-emerge Herbicidal Activity IPOHE (phytotoxicity rating) ([14]; 250 g ai/ha): 100 | Post-emerge Herbicidal Activity SORHA (phytotoxicity rating) ([15]; 63 g ai/ha): 20 | Post-emerge Herbicidal Activity SORHA (phytotoxicity rating) ([15]; 250 g ai/ha): 70 | Post-emerge Herbicidal Activity CHEAL (phytotoxicity rating) ([16]; 63 g ai/ha): 100 | Post-emerge Herbicidal Activity CHEAL (phytotoxicity rating) ([16]; 250 g ai/ha): 100 | Post-emerge Herbicidal Activity DIGSA (phytotoxicity rating) ([17]; 63 g ai/ha): 20 | Post-emerge Herbicidal Activity DIGSA (phytotoxicity rating) ([17]; 250 g ai/ha): 60 | Post-emerge Herbicidal Activity AMARE (phytotoxicity rating) [18, 23]: 100 | Post-emerge Herbicidal Activity AMARE (phytotoxicity rating) [18, 24]: 100 | Post-emerge Herbicidal Activity CASOB (phytotoxicity rating) ([19]; 63 g ai/ha): 80 | Post-emerge Herbicidal Activity CASOB (phytotoxicity rating) ([19]; 250 g ai/ha): 100 | Post-emerge Herbicidal Activity ABUTH (phytotoxicity rating) ([20]; 63 g ai/ha): 100 | Post-emerge Herbicidal Activity ABUTH (phytotoxicity rating) ([20]; 250 g ai/ha): 100 | Post-emerge Herbicidal Activity CORN (crop damage rating) ([21]; 63 g ai/ha): 20 | Post-emerge Herbicidal Activity CORN (crop damage rating) ([21]; 250 g ai/ha): 65 | Post-emerge Herbicidal Activity RICE (crop damage rating) ([22]; 63 g ai/ha): 40 | Post-emerge Herbicidal Activity RICE (crop damage rating) ([22]; 250 g ai/ha): 50

COc1c(Cl)cc(F)c(-n2c(=O)cc(C(F)(F)F)n(C)c2=O)c1NN=CCc1ccccc1 [15-15]
phytotoxicity rating AMARE ([1]; 63 g ai/ha): 100 | phytotoxicity rating AMARE ([1]; 250 g ai/ha): 100 | phytotoxicity rating ECHCG ([2]; 63 g ai/ha): 100 | phytotoxicity rating ECHCG ([2]; 250 g ai/ha): 100 | phytotoxicity rating SETVI ([3]; 63 g ai/ha): 100 | phytotoxicity rating SETVI ([3]; 250 g ai/ha): 100 | phytotoxicity rating IPOHE ([4]; 63 g ai/ha): 100 | phytotoxicity rating IPOHE ([4]; 250 g ai/ha): 100 | phytotoxicity rating SORHA ([5]; 63 g ai/ha): 100 | phytotoxicity rating SORHA ([5]; 250 g ai/ha): 100 | phytotoxicity rating CHEAL ([6]; 63 g ai/ha): 100 | phytotoxicity rating CHEAL ([6]; 250 g ai/ha): 100 | phytotoxicity rating DIGSA ([7]; 63 g ai/ha): 100 | phytotoxicity rating DIGSA ([7]; 250 g ai/ha): 100 | phytotoxicity rating CASOB ([8]; 63 g ai/ha): 100 | phytotoxicity rating CASOB ([8]; 250 g ai/ha): 100 | phytotoxicity rating ABUTH ([9]; 63 g ai/ha): 100 | phytotoxicity rating ABUTH ([9]; 250 g ai/ha): 100 | phytotoxicity rating CORN ([10]; 63 g ai/ha): 95 | phytotoxicity rating CORN ([10]; 250 g ai/ha): 100 | phytotoxicity rating RICE ([11]; 63 g ai/ha): 95 | phytotoxicity rating RICE ([11]; 250 g ai/ha): 100 | Post-emerge Herbicidal Activity ECHCG (phytotoxicity rating) ([12]; 63 g ai/ha): 30 | Post-emerge Herbicidal Activity ECHCG (phytotoxicity rating) ([12]; 250 g ai/ha): 100 | Post-emerge Herbicidal Activity SETVI (phytotoxicity rating) ([13]; 63 g ai/ha): 40 | Post-emerge Herbicidal Activity SETVI (phytotoxicity rating) ([13]; 250 g ai/ha): 95 | Post-emerge Herbicidal Activity IPOHE (phytotoxicity rating) ([14]; 63 g ai/ha): 90 | Post-emerge Herbicidal Activity IPOHE (phytotoxicity rating) ([14]; 250 g ai/ha): 100 | Post-emerge Herbicidal Activity SORHA (phytotoxicity rating) ([15]; 63 g ai/ha): 30 | Post-emerge Herbicidal Activity SORHA (phytotoxicity rating) ([15]; 250 g ai/ha): 99 | Post-emerge Herbicidal Activity CHEAL (phytotoxicity rating) ([16]; 63 g ai/ha): 100 | Post-emerge Herbicidal Activity CHEAL (phytotoxicity rating) ([16]; 250 g ai/ha): 100 | Post-emerge Herbicidal Activity DIGSA (phytotoxicity rating) ([17]; 63 g ai/ha): 40 | Post-emerge Herbicidal Activity DIGSA (phytotoxicity rating) ([17]; 250 g ai/ha): 100 | Post-emerge Herbicidal Activity AMARE (phytotoxicity rating) [18, 23]: 100 | Post-emerge Herbicidal Activity AMARE (phytotoxicity rating) [18, 24]: 100 | Post-emerge Herbicidal Activity CASOB (phytotoxicity rating) ([19]; 63 g ai/ha): 80 | Post-emerge Herbicidal Activity CASOB (phytotoxicity rating) ([19]; 250 g ai/ha): 100 | Post-emerge Herbicidal Activity ABUTH (phytotoxicity rating) ([20]; 63 g ai/ha): 100 | Post-emerge Herbicidal Activity ABUTH (phytotoxicity rating) ([20]; 250 g ai/ha): 100 | Post-emerge Herbicidal Activity CORN (crop damage rating) ([21]; 63 g ai/ha): 45 | Post-emerge Herbicidal Activity CORN (crop damage rating) ([21]; 250 g ai/ha): 90 | Post-emerge Herbicidal Activity RICE (crop damage rating) ([22]; 63 g ai/ha): 70 | Post-emerge Herbicidal Activity RICE (crop damage rating) ([22]; 250 g ai/ha): 95

Reference: patent publication US6355799B1, “Substituted benzene compounds, process for their preparation, and herbicidal and defoliant compositions containing them” (ISK Americas Incorporated, priority 1997, dated 2002)
